Structures can show the parent of a compound that is named as a salt.

We go through 31 molecules from US9156827B2, “Anticancer agent” (THE UNIVERSITY OF TOKYO, priority 2010, dated 2015).

Sequence of pim-1 kinase (P11309 whole entry): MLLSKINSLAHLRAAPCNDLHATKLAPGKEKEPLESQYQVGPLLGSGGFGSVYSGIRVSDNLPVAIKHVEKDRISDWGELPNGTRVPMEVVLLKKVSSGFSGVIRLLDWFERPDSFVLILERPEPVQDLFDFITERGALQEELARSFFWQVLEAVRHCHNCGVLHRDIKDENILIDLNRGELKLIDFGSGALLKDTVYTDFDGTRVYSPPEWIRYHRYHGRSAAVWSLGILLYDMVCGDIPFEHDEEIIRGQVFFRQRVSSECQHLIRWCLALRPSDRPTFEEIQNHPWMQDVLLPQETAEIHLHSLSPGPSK

In the first experiment the target is pim-1 kinase (Homo sapiens, UniProt P11309). Description: Measurement of pim-1 kinase inhibitory activity (fluorescent substrate peptide, capillary electrophoresis). It is filed as biochemical. The settings on record: 0.1 μM of each compound, 30 μM ATP, 1.5 μM substrate peptide, room temperature 2 hours; Table 1. The method, then:
Measurement of Pim-1 Kinase Inhibitory Activity
The result of the reaction was determined by quantifying the substrate and the phosphorylated reaction product separated by capillary electrophoresis based on difference in charges of the substances (EZ Reader II, Caliper Life Sciences, was used).
Broadly, the inhibition is the drop in the measured response relative to a control, in per cent. With `CN(C)CCCN1CCN(Cc2c(O)ccc3c2O/C(=C\c2c[nH]c4ccccc24)C3=O)CC1` [Compound A1, (Z)-2-[(1H-Indol-3-yl)methylene]-7-({4-[3-(dimethylamino)propyl]piperazin-1-yl}methyl)-6-hydroxybenzofuran-3(2H)-one], the inhibition at 0.1 µM amounted to 51%.
Same read-out and setting: then `O=C1/C(=C/c2c[nH]c3ccccc23)Oc2c1ccc(O)c2CN1CCSCC1` [Compound A4, (Z)-2-[(1H-Indol-3-yl)methylene]-6-hydroxy-7-(thiomorpholinomethyl)benzofuran-3(2H)-one], with 19%; and `O=C1/C(=C/c2c[nH]c3ccccc23)Oc2c1ccc(O)c2CN1CCC(O)CC1` [Compound A6, (Z)-2-[(1H-Indol-3-yl)methylene]-6-hydroxy-7-[(4-hydroxypiperidin-1-yl)methyl]benzofuran-3(2H)-one], with 15%.
Still for that read-out and setting: then `CN(C)CCCN(C)Cc1c(O)ccc2c1O/C(=C\c1c[nH]c3ccccc13)C2=O` [Compound A8, (Z)-2-[(1H-Indol-3-yl)methylene]-7-({[3-(dimethylamino)propyl](methyl)amino}methyl)-6-hydroxybenzofuran-3(2H)-one], with 20%.
Take `O=C1/C(=C/c2c[nH]c3ccccc23)Oc2c1cc(-c1ccccc1)c(O)c2CN1CCNCC1` [Compound A13, (Z)-2-[(1H-Indol-3-yl)methylene]-6-hydroxy-5-phenyl-7-(piperazin-1-ylmethyl)benzofuran-3(2H)-one dihydrochloride]: the inhibition at 0.1 µM is 71%.
Same read-out and setting: to `COc1cc(CN2CCNCC2)c2c(c1)C(=O)/C(=C/c1c[nH]c3ccccc13)O2` [Compound A14, (Z)-2-[(1H-Indol-3-yl)methylene]-5-methoxy-7-(piperazin-1-ylmethyl)benzofuran-3(2H)-one dihydrochloride] belongs 87%; to `O=C1/C(=C/c2c[nH]c3ccc(OCCN4CCOCC4)cc23)Oc2c1ccc(O)c2CN1CCNCC1` [Compound A19, (Z)-6-Hydroxy-2-{[5-(2-morpholinoethoxy)-1H-indol-3-yl]methylene}-7-(piperazin-1-ylmethyl)benzofuran-3(2H)-one dihydrochloride trihydrochloride], 62%; to `CC(=O)NCc1ccc2[nH]cc(/C=C3\Oc4c(ccc(O)c4CN4CCNCC4)C3=O)c2c1` [Compound A20, (Z)—N-[(3-{[6-Hydroxy-3-oxo-7-(piperazin-1-ylmethyl)benzofuran-2(3H)-ylidene]methyl}-1H-indol-5-yl)methyl]acetamide dihydrochloride], 62%.
Same read-out and setting: then `O=C1/C(=C/c2c[nH]c3ccc(Cl)cc23)Oc2c1ccc(O)c2CN1CCNCC1` [Compound A21, (Z)-2-[(5-Chloro-1H-indol-3-yl)methylene]-6-hydroxy-7-(piperazin-1-ylmethyl)benzofuran-3(2H)-one dihydrochloride], with 94%; and `COC(=O)c1ccc2c(/C=C3\Oc4c(ccc(O)c4CN4CCNCC4)C3=O)c[nH]c2c1` [Compound A23, Methyl (Z)-3-{[6-hydroxy-3-oxo-7-(piperazin-1-ylmethyl)benzofuran-2(3H)-ylidene]methyl}-1H-indole-6-carboxylate], with 56%; and `O=C1/C(=C/c2c[nH]c3cc([N+](=O)[O-])ccc23)Oc2c1ccc(O)c2CN1CCNCC1` [Compound A24, (Z)-6-Hydroxy-2-[(6-nitro-1H-indol-3-yl)methylene]-7-(piperazin-1-ylmethyl)benzofuran-3(2H)-one dihydrochloride], with 60%.
On the same count and under the same terms, to `O=C1/C(=C/c2c[nH]c3c([N+](=O)[O-])cccc23)Oc2c1ccc(O)c2CN1CCNCC1` [Compound A27, (Z)-6-Hydroxy-2-[(7-nitro-1H-indol-3-yl)methylene]-7-(piperazin-1-ylmethyl)benzofuran-3(2H)-one dihydrochloride] belongs 29%; to `CNCc1cccc2c(/C=C3\Oc4c(ccc(O)c4CN4CCNCC4)C3=O)c[nH]c12` [Compound A28, (Z)-6-Hydroxy-2-({7-[(methylamino)methyl]-1H-indol-3-yl}methylene)-7-(piperazin-1-ylmethyl)benzofuran-3(2H)-one trihydrochloride], 10%; to `Cc1ccc(S(=O)(=O)n2cc(/C=C3\Oc4c(ccc(O)c4CN4CCN(C)CC4)C3=O)c3ccccc32)cc1` [Compound A31, (Z)-6-Hydroxy-7-[(4-methylpiperazin-1-yl)methyl]-2-[(1-tosyl-1H-indol-3-yl)methylene]benzofuran-3(2H)-one], 47%.
As for `COc1ccc2c(c1CN1CCOCC1)O/C(=C\c1c[nH]c3ccccc13)C2=O` [Compound A41, (Z)-2-[(1H-Indol-3-yl)methylene]-6-methoxy-7-(morpholinomethyl)benzofuran-3(2H)-one], the inhibition at 0.1 µM came out at 40%.
The same measure, in the same setting: then `O=C1/C(=C/c2c[nH]c3ncccc23)Oc2c1ccc(O)c2CN1CCNCC1` [Compound A42, (Z)-2-[(1H-Pyrrolo[2,3-b]pyridin-3-yl)methylene]-6-hydroxy-7-(piperazin-1-ylmethyl)benzofuran-3(2H)-one trihydrochloride], with 96%; and `CN1CCN(Cc2c(O)ccc3c2O/C(=C\c2c[nH]c4ncccc24)C3=O)CC1` [Compound A43, (Z)-2-[(1H-Pyrrolo[2,3-b]pyridin-3-yl)methylene]-6-hydroxy-7-[(4-methylpiperazin-1-yl)methyl]benzofuran-3(2H)-one], with 56%.
Still for that read-out and setting: to `O=C1/C(=C/c2c[nH]c3nc(Cl)ccc23)Oc2c1ccc(O)c2CN1CCNCC1` [Compound A46, (Z)-2-[(6-Chloro-1H-pyrrolo[2,3-b]pyridin-3-yl)methylene]-6-hydroxy-7-(piperazin-1-ylmethyl)benzofuran-3(2H)-one trihydrochloride] belongs 99%; to `O=C1/C(=C/c2c[nH]c3nc(Br)ccc23)Oc2c1ccc(O)c2CN1CCNCC1` [Compound A47, (Z)-2-[(6-Bromo-1H-pyrrolo[2,3-b]pyridin-3-yl)methylene]-6-hydroxy-7-(piperazin-1-ylmethyl)benzofuran-3(2H)-one trihydrochloride], 98%; to `Cc1ccc2c(/C=C3\Oc4c(ccc(O)c4CN4CCNCC4)C3=O)c[nH]c2n1` [Compound A48, (Z)-6-Hydroxy-2-[(6-methyl-1H-pyrrolo[2,3-b]pyridin-3-yl)methylene]-7-(piperazin-1-ylmethyl)benzofuran-3(2H)-one trihydrochloride], 97%.
The same measure, in the same setting: then `O=C1/C(=C/c2c[nH]c3nc(-c4ccccc4)ccc23)Oc2c1ccc(O)c2CN1CCNCC1` [Compound A49, (Z)-6-Hydroxy-2-[(6-phenyl-1H-pyrrolo[2,3-b]pyridin-3-yl)methylene]-7-(piperazin-1-ylmethyl)benzofuran-3(2H)-one trihydrochloride], with 16%; and `C#Cc1ccc2c(/C=C3\Oc4c(ccc(O)c4CN4CCNCC4)C3=O)c[nH]c2n1` [Compound A50, (Z)-2-[(6-Ethynyl-1H-pyrrolo[2,3-b]pyridin-3-yl)methylene]-6-hydroxy-7-(piperazin-1-ylmethyl)benzofuran-3(2H)-one trihydrochloride], with 94%; and `Cc1ccc2c(/C=C3\Oc4c(cc(Cl)c(O)c4CN4CCNCC4)C3=O)c[nH]c2n1` [Compound A51, (Z)-5-Chloro-6-hydroxy-2-[(6-methyl-1H-pyrrolo[2,3-b]pyridin-3-yl)methylene]-7-(piperazin-1-ylmethyl)benzofuran-3(2H)-one trihydrochloride], with 94%.
Consider `O=C1/C(=C/c2c[nH]c3ncc(Br)cc23)Oc2c1ccc(O)c2CN1CCNCC1` [Compound A52, (Z)-2-[(5-Bromo-1H-pyrrolo[2,3-b]pyridin-3-yl)methylene]-6-hydroxy-7-(piperazin-1-ylmethyl)benzofuran-3(2H)-one trihydrochloride], for which the inhibition at 0.1 µM worked out at 101%.
On the same count and under the same terms, to `COc1ccc2c(c1CN1CCNCC1)O/C(=C\c1c[nH]c3ncccc13)C2=O` [Compound A53, (Z)-2-[(1H-Pyrrolo[2,3-b]pyridin-3-yl)methylene]-6-methoxy-7-(piperazin-1-ylmethyl)benzofuran-3(2H)-one] belongs 98%.
With `COc1ccc2c(c1CN1CCOCC1)O/C(=C\c1c[nH]c3ncccc13)C2=O` [Compound A54, (Z)-2-[(1H-Pyrrolo[2,3-b]pyridin-3-yl)methylene]-6-methoxy-7-(morpholinomethyl)benzofuran-3(2H)-one], the inhibition at 0.1 µM was determined as 72%.

The same experiment, now with this note: 0.1 μM of each compound, 30 μM ATP, 1.5 μM substrate peptide, room temperature 2 hours; Table 2.
On to `O=C1/C(=C/c2n[nH]c3ccccc23)Oc2c1ccc(O)c2CN1CCNCC1` [Compound B1, (Z)-2-[(1H-Indazol-3-yl)methylene]-6-hydroxy-7-(piperazin-1-ylmethyl)benzofuran-3(2H)-one], for which the inhibition at 0.1 µM was determined as 88%.
Consider `C[C@@H]1CN(Cc2c(O)ccc3c2O/C(=C\c2n[nH]c4ccccc24)C3=O)C[C@H](C)N1` [Compound B2], for which the “Pim-1 kinase inhibitory activity (%)” value turned out to be 61%.
As to `CN1CCN(Cc2c(O)ccc3c2O/C(=C\c2n[nH]c4ccccc24)C3=O)CC1` [Compound B4, (Z)-2-[(1H-Indazol-3-yl)methylene]-6-hydroxy-7-[(4-methylpiperazin-1-yl)methyl]benzofuran-3(2H)-one], the inhibition at 0.1 µM stood at 41%.
Still for that read-out and setting: to `O=C1/C(=C/c2n[nH]c3ccccc23)Oc2c1ccc(O)c2CN1CCOCC1` [Compound B5, (Z)-2-[(1H-Indazol-3-yl)methylene]-6-hydroxy-7-(morpholinomethyl)benzofuran-3(2H)-one] belongs 22%; to `O=C1CN(Cc2c(O)ccc3c2O/C(=C\c2n[nH]c4ccccc24)C3=O)CCN1` [Compound B6, (Z)-4-({2-[(1H-Indazol-3-yl)methylene]-6-hydroxy-3-oxo-2,3-dihydrobenzofuran-7-yl}methyl)piperazin-2-one], 49%.
